Reference: patent US20250197428A1, “INHIBITORS OF KIF18A AND USES THEREOF” (ACCENT THERAPEUTICS, INC., priority 2022, published 2025)
Like-named read-outs stand apart in the source and are kept apart here.

What was measured:
[1] = target: KIF18A (Homo sapiens (Human), UniProt Q8NI77); assay: KIF18A Biochemical Assay (ATPase, ADP-Glo)
[2] = Caco-2 permeation assay, bidirectional permeability; format: in vitro ADME; settings: human, Caco-2, pH 7.4, 5 μM, Papp(B-A)/Papp(A-B)
Method: 1. Caco-2 Permeation Assay: Evaluation of the Bidirectional Permeabilities of Compounds.
Samples were analyzed through LC/MS/MS for estimating the apparent permeability coefficients (Papp) of compounds across Caco-2 cell monolayers. Caco-2 cells (American Type Culture Collection) were incubated and seeded onto HTS Transwell-96 Well Permeable Supports (Corning Corporation) for 14 days using a cell medium consisting of Dulbecco's Modified Eagle's Medium (DMEM) with high glucose and L-glutamine supplemented with 10% FBS, 1× penicillin-streptomycin mixture and 1×non-essential amino acids (NEAA). Cell monolayer integrity was measured using an automated tissue resistance measuring system (World Precision Instruments). Stock solutions of compounds and control compounds in DMSO were diluted with HBSS (10 mM HEPES, pH 7.4) to reach a final concentration of 5 μM with a final concentration of DMSO <0.1%. HBSS was then removed after 30 minutes of preincubation, and 75 μL of test compound was added to the apical compartment of the Transwell insert. The basolateral compartment was filled with 235 μL of HBSS (10 mM HEPES, pH 7.4) containing 2% BSA. Rate of drug transport in the basolateral to apical direction was obtained by adding 235 μL of test compound to the receiver plate wells (basolateral compartment) and filling with 75 μL of HBSS (10 mM HEPES, pH 7.4) containing 2% BSA. Time 0 samples were prepared by transferring 25 μL of 5 μM working solution to wells of the 96-deepwell plate containing 25 μL HBSS (10 mM HEPES and 2% BSA, pH 7.4), followed by the addition 200 μL of cold methanol containing appropriate internal standards (100 nM alprazolam, 200 nM labetalol, 200 nM caffeine and 200 nM diclofenac). After incubating at 37° C. for 2 h, 25 μL samples from donor sides (apical compartment) were transferred to a 96-well plate containing 25 μL HBSS (10 mM HEPES and 2% BSA, pH 7.4). 25 μL samples from receiver sides (basolateral compartment) were removed and transferred to a new plate containing 25 μL HBSS (10 mM HEPES, pH 7.4). 200 μL of cold methanol containing internal standards (100 nM alprazolam, 200 nM labetalol, 200 nM caffeine and 200 nM diclofenac) was added to terminate the reaction. Samples were vortexed for 5 minutes and then centrifuged at 3,220 g for 40 minutes. An aliquot of 100 μL of the supernatant is mixed with 100 μL of ultra-pure water for LC-MS/MS analysis. All incubations are performed in duplicate. Solutions were discarded from the transwell plate. 100 μL Lucifer Yellow solution (100 μM in HBSS) was added to each well of transwell insert and 300 μL of HBSS to each well of receiver. After incubating at 37° C. for 30 minutes, 80 μL was aliquotted from each well of apical and basolateral sides to a solid black plate. The plate was then read with Tecan Infinite™ M 200 (Excitation/Emission wavelength […]).
All calculations were carried out using Microsoft Excel. Peak areas were determined from extracted ion chromatograms. The leakage of Lucifer Yellow, in unit of percentage (%), can be calculated using the following equation: […]
LY leakage of <1% is acceptable to indicate the well-qualified Caco-2 monolayers. The apparent permeability coefficient (Papp), in units of centimeter per second, can be calculated for Caco-2 drug transport assays using the following equation: […]
Where VA is the volume (in mL) in the receiver well (0.235 mL for Ap→Bl flux and 0.075 mL for Bl→Ap flux), Area is the surface area of the membrane (0.143 cm^2 for HTS Transwell-96 Well Permeable Supports), and time is the total transport time in seconds. The efflux ratio can be determined using the following equation: […]
Where Papp (B-A) indicates the apparent permeability coefficient in basolateral to apical direction, and Papp (A-B) indicates the apparent permeability coefficient in apical to basolateral direction.
The recovery can be determined using the following equation: […]

[3] = In vivo pharmacokinetic evaluation in mouse; parameters: species or system female balb/c nude mice; settings: for IV Clearance / Vd: 3 mg/kg IV; for Vd: read-out: IV Vss
[4] = system: OVCAR-3 cells; assay: In vitro anti-proliferative activity assay in cancer cell line OVCAR-3 (CellTiter-Glo, 4- or 7-day); format: cell-based; settings: Homo sapiens, read-out: OVCAR-3 cellular antiproliferation assay IC50
[5] = Bone marrow concentration in 28 day OVCAR-3 xenograft study; format: in vivo, mice; settings: NOD SCID, mouse, 30 mg/kg QD oral, 28 day study
Method: On Day 28, tissues were collected from animals. About 30-60 μL of whole blood was collected into tubes containing EDTA anticoagulant, and plasma was harvested by centrifugation at 4,000 g×5 min and stored at −80° C. until analysis. Plasma analysis followed the same protocol as for the Day 1 plasma analysis. Additionally, the femurs of the mice were cut and put in pre-weighed tubes. The bone marrow was harvested by centriguation at 8,000 g×15 min. Then, the total weight of both the bone marrow and the tube was recorded. The bone marrow was stored at −80° C. until analysis.
Samples were collected from animals 6 h after the last dose of compound and at 24 h after the last dose of compound.

[6] = system: human megakaryocyte (CFU-MK) progenitors from human bone marrow mononuclear cells; assay: Human megakaryocyte progenitor colony formation assay (CFU-MK); format: cell-based; settings: 336 h, read-out: Free-fraction adjusted CFU-MK IC50
[7] = 14 days culture, adjusted for binding to assay buffer

Chain of KIF18A (Q8NI77 1-367): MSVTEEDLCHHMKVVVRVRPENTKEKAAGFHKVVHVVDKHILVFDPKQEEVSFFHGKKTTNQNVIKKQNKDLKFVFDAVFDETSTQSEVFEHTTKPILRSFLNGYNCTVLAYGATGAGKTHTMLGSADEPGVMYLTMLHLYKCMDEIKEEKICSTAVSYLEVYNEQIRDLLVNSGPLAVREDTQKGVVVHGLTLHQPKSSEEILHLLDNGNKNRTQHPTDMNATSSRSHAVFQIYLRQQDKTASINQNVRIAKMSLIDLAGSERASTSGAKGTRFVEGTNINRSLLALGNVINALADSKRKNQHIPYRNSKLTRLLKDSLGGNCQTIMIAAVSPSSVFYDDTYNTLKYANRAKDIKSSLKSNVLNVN
Chain of KIF18A (P02550 whole entry partner): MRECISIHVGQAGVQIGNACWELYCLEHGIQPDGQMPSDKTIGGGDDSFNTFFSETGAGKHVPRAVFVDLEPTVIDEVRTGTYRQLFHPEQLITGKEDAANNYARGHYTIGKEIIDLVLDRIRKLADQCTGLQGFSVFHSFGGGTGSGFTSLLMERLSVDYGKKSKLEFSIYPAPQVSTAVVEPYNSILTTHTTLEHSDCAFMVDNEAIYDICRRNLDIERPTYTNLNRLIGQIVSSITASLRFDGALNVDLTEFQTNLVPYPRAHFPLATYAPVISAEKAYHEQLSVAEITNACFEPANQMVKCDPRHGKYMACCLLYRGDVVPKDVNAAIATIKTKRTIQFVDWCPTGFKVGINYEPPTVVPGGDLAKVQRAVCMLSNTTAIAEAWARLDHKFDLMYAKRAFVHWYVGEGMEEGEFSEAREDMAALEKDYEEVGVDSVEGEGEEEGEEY
Chain of KIF18A (P02554 whole entry partner): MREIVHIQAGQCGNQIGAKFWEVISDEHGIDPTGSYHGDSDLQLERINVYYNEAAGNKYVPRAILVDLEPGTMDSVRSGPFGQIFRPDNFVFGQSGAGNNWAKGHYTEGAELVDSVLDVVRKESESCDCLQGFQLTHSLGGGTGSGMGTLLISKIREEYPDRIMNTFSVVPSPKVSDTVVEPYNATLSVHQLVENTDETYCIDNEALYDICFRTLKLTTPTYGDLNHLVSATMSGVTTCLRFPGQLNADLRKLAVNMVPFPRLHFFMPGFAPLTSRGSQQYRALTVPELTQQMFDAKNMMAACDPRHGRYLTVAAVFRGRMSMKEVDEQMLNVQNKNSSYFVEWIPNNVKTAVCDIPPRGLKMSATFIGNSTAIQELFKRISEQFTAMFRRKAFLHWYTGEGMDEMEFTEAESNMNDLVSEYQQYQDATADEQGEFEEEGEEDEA

Compound | IC50 [1] | efflux ratio at 2 h, 5 μM [2] | IC50 ([4]; OVCAR-3, 168 h, 7-day assay) | also measured
Cc1cc(NC(=O)c2ccc(NS(=O)(=O)CCO)cc2N2CC[C@@]3(F)CC[C@H]3C2)nc(N2CCC(F)(F)CC2)n1 (single isomer, unassigned) [Example 50b] | < 100 nM | < 10 | 100 to 500 nM | IV Clearance [3]: 0.74 mL/ming/kg; Vd ([3]; female, balb/c nude, plasma): 0.51 L/kg; Cmax ([3]; female, balb/c nude, plasma, 10 mg/kg PO): 10100 ng/mL; half-life ([3]; female, balb/c nude, plasma, 10 mg/kg PO, read-out: PO T1/2 (converted)): 10.6 h
Cc1cc(NC(=O)c2ccc(NS(=O)(=O)CCO)cc2N2CCC3(CC2)CC3)nc(N2CCC(F)(F)CC2)n1 [Compound A, reference compound] | – | – | – | concentration at 6 h ([5]; read-out: Bone marrow concentration at 6 h post-last dose): 17000 ng/g; concentration at 24 h ([5]; read-out: Bone marrow concentration at 24 h post-last dose): 4100 ng/g; IV Clearance [3]: 4.1 mL/ming/kg; Vd ([3]; female, balb/c nude, plasma): 2 L/kg; IC50 ([4]; OVCAR-3, 96 h, 4-day assay): < 100 nM
C[Si]1(C)CCN(c2cc(NS(=O)(=O)CCO)c(F)cc2C(=O)Nc2cccc(N3CCC(F)(F)CC3)n2)CC1 [Example 14] | < 100 nM | – | – | IC50 [6]: 61 nM; IC50 ([4]; OVCAR-3, 96 h, 4-day assay): < 100 nM
Cc1cc(NC(=O)c2ccc(NS(=O)(=O)CCO)cc2N2CC[C@@]3(C)C[C@H]3C2)nc(N2CCC(F)(F)CC2)n1 [Example 36] | < 100 nM | – | – | IC50 [6, 7]: 82 nM; IC50 ([4]; OVCAR-3, 96 h, 4-day assay): 100 to 500 nM
Cc1cc(NC(=O)c2cnc(NS(=O)(=O)CCO)cc2N2CC[Si](C)(C)CC2)nc(N2CCC(F)(F)CC2)n1 [Example 106] | < 100 nM | < 10 | < 100 nM | –
Cc1cc(NC(=O)c2cc(F)c(NS(=O)(=O)CCO)cc2N2CC[Si](C)(C)CC2)nc(N2CCC(F)(F)CC2)c1 [Example 107] | < 100 nM | < 10 | < 100 nM | IC50 [6, 7]: 47 nM
C[Si]1(C)CCN(c2cc(NS(=O)(=O)CCO)ccc2C(=O)Nc2cncc(N3CCC(F)(F)CC3)n2)CC1 [Example 108] | < 100 nM | < 10 | < 100 nM | –
Cc1cc(NC(=O)c2ccc(NS(=O)(=O)CCO)nc2N2CC[Si](C)(C)CC2)nc(N2CCC(F)(F)CC2)n1 [Example 109] | < 100 nM | < 10 | 500 to 1000 nM | –
Cc1cc(NC(=O)c2c(F)cc(NS(=O)(=O)CCO)cc2N2CC[Si](C)(C)CC2)nc(N2CCC(F)(F)CC2)n1 [Example 110] | < 100 nM | < 10 | < 100 nM | –
Cc1cc(NC(=O)c2ccc(NS(=O)(=O)[C@H](C)CO)cc2N2CC[Si](C)(C)CC2)nc(N2CCC(F)(F)CC2)n1 [Example 111] | < 100 nM | ≥ 10 | < 100 nM | –
Cc1cc(NC(=O)c2ccc(NS(=O)(=O)[C@@H](C)CO)cc2N2CC[Si](C)(C)CC2)nc(N2CCC(F)(F)CC2)n1 [Example 112] | < 100 nM | ≥ 10 | 100 to 500 nM | –
CC(CO)S(=O)(=O)Nc1ccc(C(=O)Nc2cccc(OCCC(F)(F)F)n2)c(N2CC[Si](C)(C)CC2)c1 (stereo not shown) [Example 113] | < 100 nM | < 10 | 100 to 500 nM | –
Cc1cc(NC(=O)c2ccc(NS(=O)(=O)CCO)cc2N2CC[Si](C)(C)CC2)nc(N2CCOC(F)(F)C2)n1 [Example 115] | < 100 nM | ≥ 10 | 100 to 500 nM | –
Cc1cc(NC(=O)c2ccc(NS(=O)(=O)NCCO)cc2N2CC[Si](C)(C)CC2)nc(N2CCC(F)(F)CC2)n1 [Example 117] | 100 to 500 nM | < 10 | 100 to 500 nM | –
CNS(=O)(=O)Nc1ccc(C(=O)Nc2cc(C)nc(C3CCC(F)(F)CC3)n2)c(N2CC[Si](C)(C)CC2)c1 [Example 118] | < 100 nM | < 10 | 100 to 500 nM | –
C[Si]1(C)CCN(c2cc(NS(=O)(=O)CCO)ccc2C(=O)Nc2cccc(OCC(O)C(F)(F)F)n2)CC1 (stereo not shown) [Example 119] | < 100 nM | < 10 | < 100 nM | –
C[Si]1(C)CCN(c2cc(S(=N)(=O)C3CC3)ccc2C(=O)Nc2cccc(N3CCC(F)(F)CC3)n2)CC1 (stereo not shown) [Example 120] | < 100 nM | < 10 | < 100 nM | –
C[Si]1(C)CCN(c2cc(NS(=O)(=O)CCO)ccc2C(=O)Nc2cccc(OC[C@@H](O)C(F)(F)F)n2)CC1 [Example 121] | < 100 nM | < 10 | < 100 nM | –
C[Si]1(C)CCN(c2cc(NS(C)(=O)=O)ccc2C(=O)Nc2cccc(OC[C@@H](O)C(F)(F)F)n2)CC1 [Example 127] | < 100 nM | < 10 | < 100 nM | –
Cc1cc(NC(=O)c2ccc(NS(=O)(=O)N(C)CCO)cc2N2CC[Si](C)(C)CC2)nc(N2CCC(F)(F)CC2)n1 [Example 134] | < 100 nM | < 10 | 100 to 500 nM | –
